# Laboratory results as given in patent US11382328B2, “Rapid drug discovery methods for pathogen inactivation” (priority 2019, dated 2022).
# System: E. coli strain W3110
# Experiment: Synergy assays: Biolog chemical sensitivity panels with Group IB metal, coefficient of drug interaction (CDI) from relative growth
# Assay type: cell-based
# Conditions: for CDI (coefficient of drug interaction), copper mixed with biocide: Copper (mM) section; for CDI (coefficient of drug interaction), gold + biocide: Gold (μM)
# [1] = 1st of 3 copper concentrations (value not shown), 1st of four biocide concentrations
# [2] = 1st of 3 copper concentrations (value not shown), 2nd of four biocide concentrations
# [3] = 1st of 3 copper concentrations (value not shown), 3rd of four biocide concentrations
# [4] = 1st of 3 copper concentrations (value not shown), 4th of four biocide concentrations
# [5] = 2nd of 3 copper concentrations (value not shown), 1st of four biocide concentrations
# [6] = 2nd of 3 copper concentrations (value not shown), 2nd of four biocide concentrations
# [7] = 2nd of 3 copper concentrations (value not shown), 3rd of four biocide concentrations
# [8] = 2nd of 3 copper concentrations (value not shown), 4th of four biocide concentrations
# [9] = 3rd of 3 copper concentrations (value not shown), 1st of four biocide concentrations
# [10] = 3rd of 3 copper concentrations (value not shown), 2nd of four biocide concentrations
# [11] = 3rd of 3 copper concentrations (value not shown), 3rd of four biocide concentrations
# [12] = 3rd of 3 copper concentrations (value not shown), 4th of four biocide concentrations
# [13] = Gold section of Table 5, first of three gold concentrations (μM, value not given), biocide concentration 3 of 4
# [14] = Gold section of Table 5, first of three gold concentrations (μM, value not given), biocide concentration 4 of 4
# [15] = Gold section of Table 5, second of three gold concentrations (μM, value not given), biocide concentration 1 of 4
# [16] = Gold section of Table 5, second of three gold concentrations (μM, value not given), biocide concentration 2 of 4
# [17] = Gold section of Table 5, second of three gold concentrations (μM, value not given), biocide concentration 3 of 4
# [18] = Gold section of Table 5, second of three gold concentrations (μM, value not given), biocide concentration 4 of 4
# [19] = Gold section of Table 5, third of three gold concentrations (μM, value not given), biocide concentration 1 of 4
# [20] = Gold section of Table 5, third of three gold concentrations (μM, value not given), biocide concentration 2 of 4
# [21] = Gold section of Table 5, third of three gold concentrations (μM, value not given), biocide concentration 3 of 4
# [22] = Gold section of Table 5, third of three gold concentrations (μM, value not given), biocide concentration 4 of 4
# [23] = Silver 0.5 μM, 1st of four biocide concentrations, E. coli
# [24] = Silver 0.5 μM, 2nd of four biocide concentrations, E. coli
# [25] = Silver 0.5 μM, 3rd of four biocide concentrations, E. coli
# [26] = Silver 0.5 μM, 4th of four biocide concentrations, E. coli
# [27] = Silver 1.0 μM, 2nd of four biocide concentrations, E. coli
# [28] = Silver 1.0 μM, 3rd of four biocide concentrations, E. coli
# [29] = Silver 1.0 μM, 4th of four biocide concentrations, E. coli
# [30] = Silver 5.0 μM, 1st of four biocide concentrations, E. coli
# [31] = Silver 5.0 μM, 2nd of four biocide concentrations, E. coli
# [32] = Silver 5.0 μM, 3rd of four biocide concentrations, E. coli
# [33] = Silver 5.0 μM, 4th of four biocide concentrations, E. coli
compound,measurement,setting,value
protamine sulfate,"CDI (coefficient of drug interaction), copper mixed with biocide",[1],0.79
same,"CDI (coefficient of drug interaction), copper mixed with biocide",[2],Tox
same,"CDI (coefficient of drug interaction), copper mixed with biocide",[3],Tox
same,"CDI (coefficient of drug interaction), copper mixed with biocide",[4],Tox
same,"CDI (coefficient of drug interaction), copper mixed with biocide",[5],1.09
same,"CDI (coefficient of drug interaction), copper mixed with biocide",[6],1.26
same,"CDI (coefficient of drug interaction), copper mixed with biocide",[7],Tox
same,"CDI (coefficient of drug interaction), copper mixed with biocide",[8],Tox
same,"CDI (coefficient of drug interaction), copper mixed with biocide",[9],0.56
same,"CDI (coefficient of drug interaction), copper mixed with biocide",[10],Tox
same,"CDI (coefficient of drug interaction), copper mixed with biocide",[11],Tox
same,"CDI (coefficient of drug interaction), copper mixed with biocide",[12],Tox
same,CDI (coefficient of drug interaction),"Gold section of Table 5, first of three gold concentrations (μM, value not given), biocide concentration 2 of 4",0.96
same,CDI (coefficient of drug interaction),[13],0.49
same,CDI (coefficient of drug interaction),[14],Tox
same,CDI (coefficient of drug interaction),[15],0.99
same,CDI (coefficient of drug interaction),[16],0.94
same,CDI (coefficient of drug interaction),[17],2.22
same,CDI (coefficient of drug interaction),[18],Tox
same,CDI (coefficient of drug interaction),[19],0.92
same,CDI (coefficient of drug interaction),[20],1.09
same,CDI (coefficient of drug interaction),[21],1.56
same,CDI (coefficient of drug interaction),[22],Tox
same,"CDI (coefficient of drug interaction), silver + biocide",[23],1.10
same,"CDI (coefficient of drug interaction), silver + biocide",[24],1.15
same,"CDI (coefficient of drug interaction), silver + biocide",[25],Tox
same,"CDI (coefficient of drug interaction), silver + biocide",[26],Tox
same,"CDI (coefficient of drug interaction), silver + biocide","Silver 1.0 μM, 1st of four biocide concentrations, E. coli",0.95
same,"CDI (coefficient of drug interaction), silver + biocide",[27],1.00
same,"CDI (coefficient of drug interaction), silver + biocide",[28],Tox
same,"CDI (coefficient of drug interaction), silver + biocide",[29],Tox
same,"CDI (coefficient of drug interaction), silver + biocide",[30],0.84
same,"CDI (coefficient of drug interaction), silver + biocide",[31],0.90
same,"CDI (coefficient of drug interaction), silver + biocide",[32],Tox
same,"CDI (coefficient of drug interaction), silver + biocide",[33],Tox
Niaproof,"CDI (coefficient of drug interaction), copper mixed with biocide",[1],1.26
same,"CDI (coefficient of drug interaction), copper mixed with biocide",[2],1.45
same,"CDI (coefficient of drug interaction), copper mixed with biocide",[3],0.74
same,"CDI (coefficient of drug interaction), copper mixed with biocide",[4],0.91
same,"CDI (coefficient of drug interaction), copper mixed with biocide",[5],1.09
same,"CDI (coefficient of drug interaction), copper mixed with biocide",[6],1.20
same,"CDI (coefficient of drug interaction), copper mixed with biocide",[7],0.43
same,"CDI (coefficient of drug interaction), copper mixed with biocide",[8],0.46
same,"CDI (coefficient of drug interaction), copper mixed with biocide",[9],1.19
same,"CDI (coefficient of drug interaction), copper mixed with biocide",[10],1.00
same,"CDI (coefficient of drug interaction), copper mixed with biocide",[11],0.73
same,"CDI (coefficient of drug interaction), copper mixed with biocide",[12],1.32
same,CDI (coefficient of drug interaction),"Gold section of Table 5, first of three gold concentrations (μM, value not given), biocide concentration 1 of 4",1.32
same,CDI (coefficient of drug interaction),[14],1.27
same,CDI (coefficient of drug interaction),[15],1.21
same,CDI (coefficient of drug interaction),[16],1.03
same,CDI (coefficient of drug interaction),[17],1.09
same,CDI (coefficient of drug interaction),[18],1.15
same,CDI (coefficient of drug interaction),[19],1.35
same,CDI (coefficient of drug interaction),[20],1.20
same,CDI (coefficient of drug interaction),[21],0.95
same,CDI (coefficient of drug interaction),[22],1.51
same,"CDI (coefficient of drug interaction), silver + biocide",[23],1.07
same,"CDI (coefficient of drug interaction), silver + biocide",[24],1.17
same,"CDI (coefficient of drug interaction), silver + biocide",[26],1.74
same,"CDI (coefficient of drug interaction), silver + biocide",[27],1.17
same,"CDI (coefficient of drug interaction), silver + biocide",[28],0.99
same,"CDI (coefficient of drug interaction), silver + biocide",[29],1.45
same,"CDI (coefficient of drug interaction), silver + biocide",[30],0.89
same,"CDI (coefficient of drug interaction), silver + biocide",[31],0.99
same,"CDI (coefficient of drug interaction), silver + biocide",[32],0.78
same,"CDI (coefficient of drug interaction), silver + biocide",[33],0.55
CC1=C(C(=O)Nc2ccccc2)S(=O)(=O)CCO1 [Oxycarboxin],CDI (coefficient of drug interaction),"Copper (mM), 1st of 3 copper concentrations (head line not shown), biocide concentration 3 of 4, E. coli",Tox
same,CDI (coefficient of drug interaction),"Copper (mM), 1st of 3 copper concentrations (head line not shown), biocide concentration 4 of 4, E. coli",Tox
same,CDI (coefficient of drug interaction),"Copper (mM), 2nd of 3 copper concentrations (head line not shown), biocide concentration 3 of 4, E. coli",Tox
same,CDI (coefficient of drug interaction),"Copper (mM), 2nd of 3 copper concentrations (head line not shown), biocide concentration 4 of 4, E. coli",Tox
same,CDI (coefficient of drug interaction),"Copper (mM), 3rd of 3 copper concentrations (head line not shown), biocide concentration 3 of 4, E. coli",Tox
same,CDI (coefficient of drug interaction),"Copper (mM), 3rd of 3 copper concentrations (head line not shown), biocide concentration 4 of 4, E. coli",Tox
same,"CDI (coefficient of drug interaction), gold + biocide","first of 3 gold concentrations, biocide concentration 2 of 4",Tox
same,"CDI (coefficient of drug interaction), gold + biocide","first of 3 gold concentrations, biocide concentration 3 of 4",Tox
same,"CDI (coefficient of drug interaction), gold + biocide","first of 3 gold concentrations, biocide concentration 4 of 4",Tox
same,"CDI (coefficient of drug interaction), gold + biocide","second of 3 gold concentrations, biocide concentration 2 of 4",Tox
same,"CDI (coefficient of drug interaction), gold + biocide","second of 3 gold concentrations, biocide concentration 3 of 4",Tox
same,"CDI (coefficient of drug interaction), gold + biocide","second of 3 gold concentrations, biocide concentration 4 of 4",Tox
same,"CDI (coefficient of drug interaction), gold + biocide","third of 3 gold concentrations, biocide concentration 2 of 4",Tox
same,"CDI (coefficient of drug interaction), gold + biocide","third of 3 gold concentrations, biocide concentration 3 of 4",Tox
same,"CDI (coefficient of drug interaction), gold + biocide","third of 3 gold concentrations, biocide concentration 4 of 4",Tox
same,CDI,"Silver 0.5 μM, biocide concentration 2 of 4",Tox
same,CDI,"Silver 0.5 μM, biocide concentration 3 of 4",Tox
same,CDI,"Silver 0.5 μM, biocide concentration 4 of 4",Tox
same,CDI,"Silver 1.0 μM, biocide concentration 2 of 4",Tox
same,CDI,"Silver 1.0 μM, biocide concentration 3 of 4",Tox
same,CDI,"Silver 1.0 μM, biocide concentration 4 of 4",Tox
same,CDI,"Silver 5.0 μM, biocide concentration 2 of 4",Tox
same,CDI,"Silver 5.0 μM, biocide concentration 3 of 4",Tox
same,CDI,"Silver 5.0 μM, biocide concentration 4 of 4",Tox
Cc1cc(O)cc(C)c1Cl [chloroxylenol],"CDI (coefficient of drug interaction), copper mixed with biocide",[6],Tox
same,"CDI (coefficient of drug interaction), copper mixed with biocide",[7],Tox
same,"CDI (coefficient of drug interaction), copper mixed with biocide",[8],Tox
same,CDI (coefficient of drug interaction),[13],Tox
same,CDI (coefficient of drug interaction),[14],Tox
same,CDI (coefficient of drug interaction),[17],Tox
same,CDI (coefficient of drug interaction),[18],Tox
same,CDI (coefficient of drug interaction),[21],Tox
same,CDI (coefficient of drug interaction),[22],Tox
same,"CDI (coefficient of drug interaction), silver + biocide",[25],Tox
same,"CDI (coefficient of drug interaction), silver + biocide",[26],Tox
same,"CDI (coefficient of drug interaction), silver + biocide",[27],Tox
same,"CDI (coefficient of drug interaction), silver + biocide",[28],Tox
same,"CDI (coefficient of drug interaction), silver + biocide",[29],Tox
same,"CDI (coefficient of drug interaction), silver + biocide",[31],Tox
same,"CDI (coefficient of drug interaction), silver + biocide",[32],Tox
same,"CDI (coefficient of drug interaction), silver + biocide",[33],Tox
CCn1cc(C(=O)O)c(=O)c2cnc(N3CCNCC3)nc21 [pipemidic acid],"CDI (coefficient of drug interaction), copper mixed with biocide",[3],Tox
same,"CDI (coefficient of drug interaction), copper mixed with biocide",[4],Tox
same,"CDI (coefficient of drug interaction), copper mixed with biocide",[7],Tox
same,"CDI (coefficient of drug interaction), copper mixed with biocide",[8],Tox
same,"CDI (coefficient of drug interaction), copper mixed with biocide",[11],Tox
same,"CDI (coefficient of drug interaction), copper mixed with biocide",[12],Tox
O=c1cc(O)c2ccccc2o1 [4-Hydroxy-coumarin],"CDI (coefficient of drug interaction), copper mixed with biocide",[4],Tox
same,"CDI (coefficient of drug interaction), copper mixed with biocide",[12],Tox
same,CDI (coefficient of drug interaction),"Gold 5 μM, biocide concentration 4 of 4, E. coli",Tox
same,CDI (coefficient of drug interaction),"Gold 25 μM, biocide concentration 4 of 4, E. coli",Tox
same,"CDI (coefficient of drug interaction), silver + biocide",[26],Tox
same,"CDI (coefficient of drug interaction), silver + biocide",[29],Tox
same,"CDI (coefficient of drug interaction), silver + biocide",[33],Tox
same,CDI (coefficient of drug interaction),"[…], biocide concentration 4 of 4, E. coli",Tox
O=C1OC(CN2CCOCC2)CN1/N=C/c1ccc([N+](=O)[O-])o1 (stereo not drawn) [furaltadone],CDI (coefficient of drug interaction),"Gold 50 μM, biocide concentration 4 of 4, E. coli",Tox
